The target in one test is PI3Kα (Homo sapiens, UniProt P42336). In words: pAKT S473 ELISA in A549 cells (PI3Kα activation). The test is classed as cell-based. Also noted: endogenous in cells; host or cells: A549. To be noted: A549 cells. The protocol:
EC50 values were determined by quantifying phosphorylation on S473 residues of Akt in A549 human adenocarcinoma cells by ELISA (enzyme linked immunoadsorbent assay, R&D Systems, DYC887BE). A549 cells were seeded into 96-well plates (50,000 cells/well) in DMEM supplemented with 10% foetal bovine serum and 1% penicillin-streptomyocin. Following 24 h in culture cells were starved for 24 h in serum-free DMEM before 15 minute treatment with a concentration response curve of compounds. Experimental compounds were diluted in DMSO into […] 1:3 concentration response curves in polypropylene V-bottom plates (SLS MIC9050). Concentration response curves were diluted to a 3× stock in serum-free DMEM. Standard 8-point concentration response curves were performed at 50, 16.7, 5.6, 1.9, 0.6, 0.2, 0.07, 0.02 μM and serum-free DMEM containing 0.5% DMSO was used as a negative control. […] A549 cells were seeded at 50,000 cells per well in 96-well plates in DMEM (10% FBS+1% P/S). The next day cells were washed once with PBS before addition of serum-free DMEM for 24 h. On the day of treatment cells, were incubated in fresh serum-free DMEM prior to treatment. Compounds solubilised to 10 mM in DMSO were diluted 1:3 in an 8-point concentration response curve in DMSO. Concentration response curves were diluted in serum-free DMEM by transfer into intermediate plates using a BRAVO liquid handler (Agilent). Intermediate plates were then used to treat cell plates using the BRAVO liquid handler. Compound concentration response curves had atop concentration of 50 μM and a final well concentration of 0.5% DMSO. Cell plates were treated for 15 min at 37° C., 5% CO2 before being washed with ice-cold PBS and lysed in lysis buffer 6 (R&D Systems #895561) and freezing at −80° C. Levels of pAKT-S473 were determined using the phospho-AKT (S473) pan-specific Duoset IC ELISA (R&D Systems #DYC887BE) in 96-well white high-binding plates (Corning #3922) according to manufacturer's instructions. Endpoint luminescence was measured using a Sense (Hidex) platereader. […] Data were transformed and EC50 data were determined by variable slope (4 parameters) non-linear regression using Prism 7 (Graphpad).
Background: ELISA stands for enzyme-linked immunosorbent assay.

The target of another test is T1, N345K mutant of p110α (Homo sapiens, UniProt P42336, N345K).
T1 construct: Full-length p110α was expressed in a complex with full-length p85α (for biochemistry and HDX-MS); 6xHis followed by TEV protease site (N); made in house; host or cells: Spodoptera frugiperda Sf9 (plasmid OP661)
In words: ADP-Glo kinase assay, oncogenic mutant N345K. The test is classed as biochemical. Conditions: compared with pY. As for the experimental part:
Co-stimulation of 1938 with pY led to an additive activatory effect for G106V, but not for the N345K and E545K mutants (FIG. 1f/FIG. 22f).
Kinase reactions were performed with ADP-Glo kinase assay kit (Promega Corporation). The enzyme, substrate and compounds were diluted in reaction buffer (20 mM HEPES, 50 mM NaCl, 50 mM KCl, 3 mM MgCl2, 1 mM EGTA, 1 mM TCEP, pH 7.4). Final concentrations of PI3Kα and PI3Kδ used were 25 nM and 50 nM for PI3Kβ. Liposomes (5% brain PI(4,5)P2, 20% brain phosphatidylserine, 45% brain phosphatidylethanolamine, 15% brain phosphatidylcholine, 10% cholesterol, 5% sphingomyelin (Avanti Polar Lipids)) were used at a final concentration of 1 mg/ml. The pY sequence is ESDGG(pY)[…](pY)[…].
For characterisation of the effects of 1938 on in vitro PI3K enzymology, all reactions were performed at room temperature with 384 white-polystyrene plates (Corning #3574). The final DMSO concentration in the assay was between 0.5%-1.8%. The reaction mixture contained 2 μl PI3K enzyme, 2 μl compound and/or pY and 2 μl of liposome substrate mixed with ATP. ATP was used at a final concentration of 200 μM, unless otherwise stated. The enzyme and compounds were pre-incubated for 10 min prior to addition of substrate. […] For enzyme kinetic calculations, data was expressed as velocity (pmol of ADP generated/sec). […]

Chain of PI3Kα (P42336 whole entry): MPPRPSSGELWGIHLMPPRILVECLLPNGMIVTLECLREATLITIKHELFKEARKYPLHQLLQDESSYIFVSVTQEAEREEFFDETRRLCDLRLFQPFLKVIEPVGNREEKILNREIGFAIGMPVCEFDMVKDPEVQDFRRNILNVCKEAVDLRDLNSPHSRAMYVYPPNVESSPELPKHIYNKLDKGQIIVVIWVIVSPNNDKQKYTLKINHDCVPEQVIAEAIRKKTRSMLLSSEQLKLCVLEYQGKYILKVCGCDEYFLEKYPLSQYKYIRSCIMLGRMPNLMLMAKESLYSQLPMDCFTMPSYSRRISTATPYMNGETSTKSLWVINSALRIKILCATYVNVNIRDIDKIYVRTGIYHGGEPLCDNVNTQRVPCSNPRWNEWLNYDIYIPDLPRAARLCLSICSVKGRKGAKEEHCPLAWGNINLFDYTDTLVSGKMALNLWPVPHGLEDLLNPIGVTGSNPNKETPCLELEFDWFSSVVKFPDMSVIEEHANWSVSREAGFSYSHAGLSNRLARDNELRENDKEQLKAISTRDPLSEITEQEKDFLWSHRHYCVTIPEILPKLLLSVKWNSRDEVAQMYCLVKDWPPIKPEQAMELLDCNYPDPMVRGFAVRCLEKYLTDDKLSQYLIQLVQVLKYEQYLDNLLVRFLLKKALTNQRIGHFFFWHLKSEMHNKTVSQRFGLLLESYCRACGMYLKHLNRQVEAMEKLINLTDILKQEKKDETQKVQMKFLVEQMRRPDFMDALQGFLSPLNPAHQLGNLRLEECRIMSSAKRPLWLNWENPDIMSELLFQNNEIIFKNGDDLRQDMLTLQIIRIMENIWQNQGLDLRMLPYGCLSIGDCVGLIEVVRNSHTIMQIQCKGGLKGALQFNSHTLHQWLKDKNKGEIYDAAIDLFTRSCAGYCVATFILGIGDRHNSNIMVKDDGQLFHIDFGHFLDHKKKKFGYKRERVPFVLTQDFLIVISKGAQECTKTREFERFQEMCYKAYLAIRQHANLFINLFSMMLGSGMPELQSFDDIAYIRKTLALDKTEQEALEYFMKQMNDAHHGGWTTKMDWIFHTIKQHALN
Chain of PI3Kα (P27986 whole entry partner): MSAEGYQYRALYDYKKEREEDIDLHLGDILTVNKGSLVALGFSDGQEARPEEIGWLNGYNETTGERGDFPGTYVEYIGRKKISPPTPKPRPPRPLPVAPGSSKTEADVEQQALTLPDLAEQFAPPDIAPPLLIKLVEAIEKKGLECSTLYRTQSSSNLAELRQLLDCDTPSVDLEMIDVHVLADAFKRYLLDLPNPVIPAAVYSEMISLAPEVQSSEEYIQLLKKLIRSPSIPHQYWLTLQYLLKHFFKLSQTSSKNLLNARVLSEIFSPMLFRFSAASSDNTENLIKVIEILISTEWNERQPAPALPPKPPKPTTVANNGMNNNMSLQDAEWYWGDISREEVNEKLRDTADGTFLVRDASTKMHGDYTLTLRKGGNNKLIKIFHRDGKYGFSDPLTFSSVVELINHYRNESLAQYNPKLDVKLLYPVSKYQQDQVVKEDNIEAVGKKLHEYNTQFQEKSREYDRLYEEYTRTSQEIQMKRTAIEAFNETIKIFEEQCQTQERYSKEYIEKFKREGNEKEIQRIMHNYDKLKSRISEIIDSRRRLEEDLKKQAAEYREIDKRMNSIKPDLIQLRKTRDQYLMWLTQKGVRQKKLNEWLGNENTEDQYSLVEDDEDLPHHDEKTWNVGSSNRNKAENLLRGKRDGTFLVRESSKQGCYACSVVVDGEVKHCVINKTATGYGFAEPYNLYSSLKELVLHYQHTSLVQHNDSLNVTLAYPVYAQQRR
T1 sequence (P42336 whole entry N345K): as the sequence (P42336 whole entry) above, with N345K counted along it
T1 sequence (P27986 whole entry partner): as the sequence (P27986 whole entry partner) above

Usually EC50 stands for the concentration giving half of the maximal effect. One may read the Emax as the maximal effect, on the per cent scale that the assay sets. At PI3Kα (EC50 for induction of pAKT, 15 min treatment), `CCN1CCN(c2ccc(Nc3cc(Nc4cccc5c4N(C(C)=O)CC5)ccn3)cc2)CC1` [Example 1938] registered an EC50 of 2 to 4 µM. Also, the Emax at PI3Kα (read-out: AKT phosphorylation, % of Emax of 1 μM insulin, doses of 5-10 μM 1938) is around 200%. In addition, on N345K mutant of p110α, the “activation of N345K mutant” value is recorded as “levels comparable with stimulation with pY”.

For the origin of these results see patent publication US20250263404A1, “AMINOPYRIDINES AS ACTIVATORS OF PI3 KINASE” (UCL Business Ltd, priority 2021, published 2025).
